Experimental findings from ChEMBL document CHEMBL1201862, “PubChem BioAssay data set” (2004) are described below.

Calls of active or inactive are those of the source.

Test [1] in a line: bead-based luminescence quenchers, dual-tagged ARNT – biochemical, AlphaScreen, cherry-pick, artefact control for ARNT-TACC3 interaction inhibitor project, dose response (AID 651705).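 Also: AlphaScreen bead proximity signal that flags compounds interfering with the detection technology; potency reflects signal decrease which marks the compound as an assay artifact.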 The test is classed as functional.
Test [2] can be described thus: Luminescence Cell-Based Dose Retest to Confirm Inhibitors of Cancer Stem Cells. [Related pubchem assays (depositor defined):AID2717, AID2721]. The test is classed as functional. The settings on record: Homo sapiens.
Test [3] deals with T1, Corticotropin-releasing factor receptor 2/Corticotropin-releasing factor-binding protein (Homo sapiens, UniProt P24387+Q13324).
T1 sequence (Q13324 whole entry): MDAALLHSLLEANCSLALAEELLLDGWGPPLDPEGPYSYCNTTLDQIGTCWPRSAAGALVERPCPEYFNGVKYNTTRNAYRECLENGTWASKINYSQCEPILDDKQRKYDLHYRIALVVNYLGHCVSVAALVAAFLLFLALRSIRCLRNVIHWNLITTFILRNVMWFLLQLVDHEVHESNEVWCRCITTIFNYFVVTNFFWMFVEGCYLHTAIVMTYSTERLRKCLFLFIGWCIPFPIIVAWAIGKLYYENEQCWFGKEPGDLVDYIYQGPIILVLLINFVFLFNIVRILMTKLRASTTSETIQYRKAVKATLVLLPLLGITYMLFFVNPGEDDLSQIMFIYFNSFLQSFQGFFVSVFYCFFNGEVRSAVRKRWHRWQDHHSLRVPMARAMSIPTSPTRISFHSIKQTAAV
T1 sequence (P24387 whole entry): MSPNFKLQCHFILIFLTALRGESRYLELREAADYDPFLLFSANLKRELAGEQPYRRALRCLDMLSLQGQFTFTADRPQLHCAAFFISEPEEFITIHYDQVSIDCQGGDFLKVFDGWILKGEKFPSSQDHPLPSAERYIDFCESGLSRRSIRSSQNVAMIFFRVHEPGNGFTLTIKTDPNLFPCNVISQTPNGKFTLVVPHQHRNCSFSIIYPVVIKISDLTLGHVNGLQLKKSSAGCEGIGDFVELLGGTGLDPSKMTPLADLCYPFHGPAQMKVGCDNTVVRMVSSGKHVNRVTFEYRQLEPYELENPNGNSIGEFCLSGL
The test can be described thus: activators of CRF receptor 2 with binding protein – uHTS hits, confirmation (AID 602473). To be noted: read-out: EC50_Mean. The test is classed as functional.

Test [4] is described as follows: blockers of CRF-binding protein–CRF-R2 complex – cell-based, uHTS hits, 384-well, dose response (AID 651639). The format is functional, Homo sapiens. To be noted: read-out: IC50_Mean.
For test [5], the target named is T1, Corticotropin-releasing factor receptor 2/Corticotropin-releasing factor-binding protein. The test can be described thus: Dose Response confirmation of uHTS hits for small molecule antagonists of the CRF-binding protein and CRF-R2 receptor complex. The test is classed as functional. To be noted: read-out: IC50_Mean.
Test [6] has as its target T2, Low molecular weight phosphotyrosine protein phosphatase (Homo sapiens, UniProt P24666).
T2 sequence (P24666 whole entry): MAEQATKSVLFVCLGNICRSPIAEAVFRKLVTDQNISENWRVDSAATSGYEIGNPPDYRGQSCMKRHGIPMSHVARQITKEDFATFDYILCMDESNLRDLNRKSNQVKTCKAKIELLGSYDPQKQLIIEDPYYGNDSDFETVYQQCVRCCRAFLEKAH
The format is functional. The settings on record: read-out: IC50_Mean.

Test [7] deals with T2, Low molecular weight phosphotyrosine protein phosphatase. The format is functional. The settings on record: read-out: IC50_Mean. This is another data set of the same source.
For test [8], the system named is HEK293. The test can be described thus: membrane integrity loss in HEK cells – cell-based, fluorescence, cytotoxicity control for IDE activator project, dose response (AID 588440).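 Also: cytotoxicity by LDH release measuring loss of membrane integrity.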 The format is functional. The settings on record: Homo sapiens.
Test [9] concerns HEK293. Description: optical interference in Abeta FP readout, dose response, artefact control for IDE activator project, biochemical, fluorescence polarization (AID 588442). The settings on record: Homo sapiens. The test is classed as functional, cell-based. In general terms: In fluorescence polarisation assays a small probe gives low polarisation when free and higher when bound to something large.

In test [10] the target is T3, Insulin-degrading enzyme (Homo sapiens, UniProt P14735).
T3 sequence (P14735 whole entry): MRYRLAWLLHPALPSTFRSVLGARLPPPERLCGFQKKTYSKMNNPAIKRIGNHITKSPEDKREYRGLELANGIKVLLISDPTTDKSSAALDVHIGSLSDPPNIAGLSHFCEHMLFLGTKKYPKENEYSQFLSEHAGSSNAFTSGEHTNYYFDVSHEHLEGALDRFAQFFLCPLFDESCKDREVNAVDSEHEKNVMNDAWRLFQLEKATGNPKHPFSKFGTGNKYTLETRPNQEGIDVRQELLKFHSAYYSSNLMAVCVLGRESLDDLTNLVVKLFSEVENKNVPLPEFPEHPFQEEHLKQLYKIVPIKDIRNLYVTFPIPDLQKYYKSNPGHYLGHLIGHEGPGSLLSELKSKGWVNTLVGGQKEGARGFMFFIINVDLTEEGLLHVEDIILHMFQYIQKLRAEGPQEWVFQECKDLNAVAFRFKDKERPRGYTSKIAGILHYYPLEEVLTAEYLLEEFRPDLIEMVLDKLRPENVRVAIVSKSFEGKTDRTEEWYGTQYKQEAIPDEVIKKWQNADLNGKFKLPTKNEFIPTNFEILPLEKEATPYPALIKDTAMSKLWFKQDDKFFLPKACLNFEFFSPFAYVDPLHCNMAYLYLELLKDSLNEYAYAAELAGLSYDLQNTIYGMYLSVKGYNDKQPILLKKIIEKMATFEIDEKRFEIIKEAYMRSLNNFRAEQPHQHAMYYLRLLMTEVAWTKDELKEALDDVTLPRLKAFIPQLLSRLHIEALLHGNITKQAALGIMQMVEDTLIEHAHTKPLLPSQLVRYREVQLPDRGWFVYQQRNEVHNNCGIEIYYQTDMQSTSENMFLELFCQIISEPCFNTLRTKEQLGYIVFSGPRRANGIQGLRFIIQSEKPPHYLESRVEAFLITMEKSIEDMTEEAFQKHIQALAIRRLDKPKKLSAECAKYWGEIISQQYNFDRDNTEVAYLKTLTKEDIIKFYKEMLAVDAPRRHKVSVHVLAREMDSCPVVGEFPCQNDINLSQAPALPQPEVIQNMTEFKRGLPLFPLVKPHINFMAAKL
Description: recombinant IDE activation, cell-free – biochemical, fluorescence polarization, counter-screen for IDE activator project, dose response (AID 588681).

In test [11] the target is T3, Insulin-degrading enzyme. The test can be described thus: cellular IDE activation of Abeta substrate cleavage – fluorescence polarization, HEK cells, dose response (AID 588439). The format is functional, cell-based.
The next test deals with Nonstructural protein 1 (Influenza A virus, UniProt Q194T2). The format is functional, Influenza A virus (A/California/07/2009(H1N1)).
A further test concerns the target Cytochrome P450 2D6 (Homo sapiens, UniProt P10635).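 Also: CYP2D6 member of a cytochrome P450 panel assay.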
Test [12] concerns the target T4, Zinc finger protein mex-5 (Caenorhabditis elegans, UniProt Q9XUB2).
T4 sequence (Q9XUB2 whole entry): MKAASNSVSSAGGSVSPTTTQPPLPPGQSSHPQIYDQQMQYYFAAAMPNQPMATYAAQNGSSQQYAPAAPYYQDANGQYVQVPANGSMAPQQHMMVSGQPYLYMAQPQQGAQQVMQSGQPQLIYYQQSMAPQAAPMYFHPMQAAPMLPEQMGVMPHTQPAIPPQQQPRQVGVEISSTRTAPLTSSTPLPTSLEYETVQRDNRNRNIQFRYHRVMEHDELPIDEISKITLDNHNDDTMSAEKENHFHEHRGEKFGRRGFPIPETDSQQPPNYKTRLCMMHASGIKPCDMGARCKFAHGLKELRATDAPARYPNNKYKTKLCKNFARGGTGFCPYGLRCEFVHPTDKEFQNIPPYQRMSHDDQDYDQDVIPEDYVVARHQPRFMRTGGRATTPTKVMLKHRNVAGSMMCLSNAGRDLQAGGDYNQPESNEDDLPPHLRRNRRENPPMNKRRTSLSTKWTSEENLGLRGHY
The test can be described thus: potency of MEX-5 RNA-binding blockers – biochemical, C. elegans, fluorescence polarization, dose response (AID 1960).

Test [13] deals with T5, RNA-binding protein pos-1 (Caenorhabditis elegans, UniProt G5EF15).
T5 sequence (G5EF15 whole entry): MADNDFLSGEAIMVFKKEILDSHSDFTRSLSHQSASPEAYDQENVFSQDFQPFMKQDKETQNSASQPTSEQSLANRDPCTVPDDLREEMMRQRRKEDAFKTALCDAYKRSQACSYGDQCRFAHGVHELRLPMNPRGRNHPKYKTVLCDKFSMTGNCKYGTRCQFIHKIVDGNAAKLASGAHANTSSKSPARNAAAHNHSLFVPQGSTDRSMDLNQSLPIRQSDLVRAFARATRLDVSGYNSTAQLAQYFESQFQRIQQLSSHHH
Description: disruptors of C. elegans POS-1 RNA interaction – biochemical, fluorescence polarization, dose response (AID 1964).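 Also: purified POS-1 fused to maltose binding protein made in E. coli; potency of compounds blocking POS-1 binding to fluorescent RNA.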

Test [14] deals with T6, Endoribonuclease toxin MazF (Escherichia coli K-12, UniProt P0AE70).
T6 sequence (P0AE70 whole entry): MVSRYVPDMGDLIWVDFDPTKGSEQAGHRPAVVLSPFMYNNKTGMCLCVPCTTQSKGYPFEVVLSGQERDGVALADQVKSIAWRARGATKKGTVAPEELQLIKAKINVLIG
The test can be described thus: activation of MazEF endoribonuclease cleavage – biochemical, fluorescence, single-stranded RNA substrate, uHTS hits, dose response (AID 588481). The format is functional.

The target in test [15] is T6, Endoribonuclease toxin MazF. Description: substrate-only fluorescence increase artefacts – biochemical, single-stranded RNase substrate, counter-screen for MazEF activator project, dose response (AID 588502). The test is classed as functional. A general note: A counterscreen serves to expose hits that act by an unwanted route or on another target.
A short description of test [16]: activation of miR-122 Renilla sensor silencing – cell-based, Huh7 psiCHECK-miR122, Renilla luciferase, cherry-picked, dose response (AID 651956).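 Also: huh7 hepatoma cells stably carrying a psiCHECK-2 miR-122 sensor plasmid; renilla luciferase signal reporting endogenous miR-122 activity after 48 h compound exposure.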 The format is functional.
For test [17], the target named is T7, Aryl hydrocarbon receptor (Homo sapiens, UniProt P35869).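 Also: confirmatory quantitative high-throughput screen measuring activation of the AhR signaling pathway.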
T7 sequence (P35869 whole entry): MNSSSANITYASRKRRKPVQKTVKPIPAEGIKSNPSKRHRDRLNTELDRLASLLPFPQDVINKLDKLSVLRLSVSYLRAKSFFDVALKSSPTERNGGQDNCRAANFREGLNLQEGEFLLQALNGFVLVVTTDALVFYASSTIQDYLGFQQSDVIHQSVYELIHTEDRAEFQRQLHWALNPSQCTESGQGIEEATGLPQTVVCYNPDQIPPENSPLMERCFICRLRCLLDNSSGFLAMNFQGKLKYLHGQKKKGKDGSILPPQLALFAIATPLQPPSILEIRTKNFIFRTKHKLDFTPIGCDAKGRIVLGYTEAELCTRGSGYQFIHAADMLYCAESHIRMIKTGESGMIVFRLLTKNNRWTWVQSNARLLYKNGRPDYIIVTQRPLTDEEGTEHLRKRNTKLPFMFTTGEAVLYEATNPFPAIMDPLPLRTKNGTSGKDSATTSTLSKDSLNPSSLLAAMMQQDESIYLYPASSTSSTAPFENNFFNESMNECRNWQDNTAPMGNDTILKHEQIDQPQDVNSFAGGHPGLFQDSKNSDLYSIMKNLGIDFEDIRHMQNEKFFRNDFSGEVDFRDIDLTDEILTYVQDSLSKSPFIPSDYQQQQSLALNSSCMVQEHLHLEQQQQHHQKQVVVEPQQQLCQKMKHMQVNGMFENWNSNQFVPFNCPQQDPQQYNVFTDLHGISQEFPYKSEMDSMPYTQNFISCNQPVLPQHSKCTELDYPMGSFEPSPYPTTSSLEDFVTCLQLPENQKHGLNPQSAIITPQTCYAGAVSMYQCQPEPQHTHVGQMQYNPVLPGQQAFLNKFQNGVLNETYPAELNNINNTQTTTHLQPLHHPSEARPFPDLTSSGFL
To be noted: Potency.

Chain of Cytochrome P450 2D6 (P10635 whole entry): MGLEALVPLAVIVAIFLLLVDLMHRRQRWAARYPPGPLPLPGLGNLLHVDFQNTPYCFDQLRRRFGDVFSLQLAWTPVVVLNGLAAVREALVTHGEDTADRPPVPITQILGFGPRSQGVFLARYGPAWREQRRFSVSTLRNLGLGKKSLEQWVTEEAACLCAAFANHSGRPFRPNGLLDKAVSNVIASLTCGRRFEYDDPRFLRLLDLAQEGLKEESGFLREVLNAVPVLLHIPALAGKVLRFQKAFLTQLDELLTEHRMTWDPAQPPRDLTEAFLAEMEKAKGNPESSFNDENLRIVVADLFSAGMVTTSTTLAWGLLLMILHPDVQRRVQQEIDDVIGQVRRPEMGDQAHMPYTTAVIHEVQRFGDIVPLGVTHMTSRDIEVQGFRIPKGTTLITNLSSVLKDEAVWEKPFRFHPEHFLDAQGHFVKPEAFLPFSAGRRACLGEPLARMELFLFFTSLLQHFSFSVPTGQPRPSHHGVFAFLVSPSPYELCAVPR
Chain of Nonstructural protein 1 (Q194T2 whole entry): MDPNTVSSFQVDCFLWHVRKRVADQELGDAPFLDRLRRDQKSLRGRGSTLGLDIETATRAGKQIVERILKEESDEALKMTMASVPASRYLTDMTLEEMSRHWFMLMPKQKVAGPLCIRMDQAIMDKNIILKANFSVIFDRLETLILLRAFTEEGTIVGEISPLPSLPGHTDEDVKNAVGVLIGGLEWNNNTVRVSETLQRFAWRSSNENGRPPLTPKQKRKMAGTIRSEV

One may read the AC50 as the midpoint of the concentration-response curve, whichever way the signal moves. In the case of `Cc1cccc(C(=O)Nc2nnc(C3=COCCO3)o2)c1`, the AC50 in test [1] was 128 µM (active).
Turning to `CCN(c1ccccc1)c1nc(C#N)nc(N(CC)c2ccccc2)n1`, the AC50 in test [2] was 3.66 µM (active). The EC50 in test [3] is > 53 µM (inactive). Besides, the IC50 in [4] was 6 µM (active); in test [5], 0.723 µM (active).
As to `O=C(OCCNc1nc(-c2ccccc2)nc2ccccc12)c1cccnc1`, the IC50 in test [6] was 7.51 µM (active); in [7], 23.1 µM (inactive).
`O=C(O)c1ccc(N=Nc2c(O)ccc3ncccc23)cc1`: the IC50 with HEK293 [8] was > 89.2 µM (inactive); on Nonstructural protein 1 it was 3.07 µM (active). Moreover, the figures for the EC50 in the test on HEK293 [9], at Insulin-degrading enzyme [10] and on Insulin-degrading enzyme [11] were 30.9 µM (inactive), 6.69 µM (active) and 7.38 µM (active), respectively.
`Cc1c(CCO)c(=O)n(-c2ccccc2)n1S(=O)(=O)c1c(Cl)cc(Cl)cc1Cl`: the concentration at half-maximal activity (AC50) on Cytochrome P450 2D6 is 7.94 µM (inconclusive); in test [1], 76.8 µM (active).
As for `C=CCN1C(=O)/C(=C2/Sc3ccc(OC)cc3N2CC)SC1=S`, the EC50 in test [3] was > 53 µM (inactive); in [12], > 300 µM (not active); in [13], > 300 µM (inconclusive); in test [14], > 99 µM (inactive); in test [15], > 99 µM (inactive).
Take `Cc1ccc(-c2cnc3c(c2)C(=O)N([C@H](C)CO)C[C@@H](C)[C@H](CN(C)CC2CCCCC2)O3)cc1`: the AC50 in test [16] is 18.3 µM (active).
Same read-out and setting: the value for `O=C(C1CCOCC1)N1[C@H](CO)[C@H]2c3ccccc3NC[C@H]21` was 30 µM (active).
For `C1=C/CC/C=C/CC/C=C/CC/1`, the AC50 in test [17] was 44.7 µM (inconclusive).
On to `CCOP(=S)(OCC)Oc1ccc2c(C)c(Cl)c(=O)oc2c1` [COUMAPHOS], for which, in test [17], the AC50 is 0.178 µM (inconclusive).
